Values joined by “and” are separate entries in the source; they are usually repeats but may differ in a detail not shown here. Identical values can stand only once.
Tests used:
Assay type in all cases: in vivo
[1] = tested on: mice (RJ:NMRI, males); assay: Bright/dark box test (clear/dark transition test)
Description: This model, also known as clear/dark transition test, is characterized as a model of conflict, based on the natural tendency to explore new environments versus avoidance of doing so, due to the potential possibility of the presence of aversive stimuli. It is an animal model based on independent behavior of conditioning, therefore, there is no need of learning. In rodents, this model is grounded in their natural aversion to excessively clear environments. This aversion is measured from the ansiogenic component expressed by lower exposure of the animal to the clear compartment.
The method employed followed the procedure described by Crawley and Goodwin (Pharmacol. Biochem. Behav. 1981, 15, 695-699).
The animals were placed on the clear field of a box comprising two compartments, one being illuminate and open (25 x 27 x 27 cm) and the other being dark and close (20 x 27 x 27 cm). Data on the length of stay in each compartment were collected over the three-minute test.
This test aimed at obtaining a comparison profile of response of Compound (A) (3-(2-(-4-(2-methoxyphenyl)piperazin-1-yl)ethyl)quinazolin-4(3H)-one and Compound (B) 3-(2-(4-(2-cyanophenyl)piperazin-1-yl)ethyl)quinazolin-4(3H)-one with known compounds that act by different mechanisms. The comparative compounds were alprazolam (benzodiazepine), paroxetine (ISRS-type antidepressant), venlafaxine (IRSN-type antidepressant) and agomelatine (antidepressant that acts on melatonin and serotonin 5-HT2C receptor). The following doses were employed in this study: Table 1: Tested compounds, concentrations and route of administration.
In this blind study, ten mice (RJ:NMRI, males) were employed per group. Clobazam (12 mg/Kg, i.p. route) was administered under the same study conditions as the reference compound. All compounds were administered 30 minutes before the test.
The test data of the response of substances were analyzed comparing the groups treated with the control vehicle using one-way ANOVA followed by post-hoc analysis of Dunnett's test. The data of the reference substance obtained were analyzed using unpaired Student's t test.

[2] = tested on: Mice; assay: Non-precipitated withdrawal test; conditions: mouse, in vivo; for withdrawal syndrome after an extended administration regimen: po
Excerpt: This test aims at assessing how the sudden cessation of the administration of a medicine can be associated with the occurrence of withdrawal identifiable symptoms. The types of symptoms examined are feed changes, weight gain, body temperature and the occurrence of one or behavioral symptoms and others, such as tremor, teeth chattering, wet dog body-shaking, diarrhea or piloerection. The triggering of these signs is a first sign that the substance induces dependence after repeated administration.
The method employed followed the procedure described by Goudie and Leathley (Psychopharmacology 1991, 103: 529-537).
Two mice per cage received two administrations per day (approximately 10:00 hours and 16:00 hours) of the test substance continuously during 19 days (day 1 to day 19), with the last administration occurring next to 10:00 hours of the 20th day. Control animals received the same number of administrations of vehicle. […] During the discontinuation phase, all animals received administration of vehicle once a day.
Additionally to the observations made after discontinuing the medicines, the same measures were taken at day 1 and day 10 of treatment, in addition to the 3 last days (days 18 to 20) immediately prior to administration of the dose in the morning to assess the effects of medicines before discontinuation. After discontinuation, the first observation was performed 24 hours after the last administration and, from then on, every 24 hours (days 21 to 28).
For daily measurements, the animals were evaluated with respect to behavioral changes during 5 minutes (two animals simultaneously observed). Then, their body weights and rectal temperatures were measured. Then, they received the proper treatment and were returned to their cages.
The leftover food in their supporters was weighed immediately after all animals return to their cages (only in the mornings), and food consumption in the previous 24 hours was determined.
The body weights, feed consumption and rectal temperatures were also measured 24 hours before the first administration, as reference values. The treated groups were homogenized with regard to body weights on the day preceding the first administration of the tested substances.
Compound (A) (3-(2-(-4-(2-methoxyphenyl)piperazin-1-yl)ethyl)quinazolin-4 (3H)-one) was evaluated in 3 doses (3, 10 and 30 mg/kg) administered orally (p.o.) and compared to the vehicle (control group).
Chlordiazepoxide (64 mg/kg, p.o.) was administered under the same experimental conditions, and was employed as reference substance in the test.
Paroxetine (15 and 30 mg/kg p.o.) was administered under the same experimental conditions and was used as comparative substance.
The test was blinded. Data were analyzed by comparing substances with their control vehicles employing one-way ANOVA with the group as a factor followed by post-hoc Dunnett tests. Data with the reference substance were analyzed using unpaired Student's t test.

[3] = tested on: Mice; assay: Sphere hiding test
Description: This test is based on the natural aversive behavior to glass and marble of rodents, where the presence of these objects triggers the action of burying (hiding). In this test, there are potential behavioral changes of medicines that may promote an ansiogenic or anxiolytic profile. This is determined by the increase or decrease of the behavior of hiding glass spheres ("marbles") that are randomly distributed on the surface of a box lined with sawdust. The increase of the number of covered balls is an indicative of anxiety, since it is supposed to represent a foreign agent to the animal, whose presence may pose threat. The administration of anxiolytics medicines decreases the number of spheres buried in non-sedative doses.
The method employed followed the procedure described by Broekkamp et al. (Eur. J. Pharmacol., 1986, 126, 223-229).
Mice were individually placed in transparent plastic cages (33 x 21 x 18 cm), with the floor covered by a 5 cm layer of sawdust and 25 glass spheres grouped in the center of the cage. The cage was covered with a perforated plastic cover. Each test cage, along with the glass spheres, were previously impregnated with "mouse odor", and a group of 10 mice was left inside for 15 minutes.
The number of glass spheres covered with sawdust (2/3 or more of the surface) was counted at the end of the 30 minutes of the test.
Each study group consisted of 12 mice. The test was partially blind (substances tested versus vehicle of the tested substances).
This test aimed at obtaining a comparison profile of response of Compound (A) (3-(2-(-4-(2-methoxyphenyl)piperazin-1-yl) ethyl) quinazolin-4 (3H) -one and Compound (B) (3-(2-(4-(2-cyanophenyl)piperazin-1-yl)ethyl)quinazolin-4(3H)-one) with known compounds that act by different mechanisms. The comparative compounds used were alprazolam (benzodiazepine) and paroxetine (ISRS-type antidepressant). These compounds were tested in the following doses: Table 3: Compounds tested, concentrations employed and route of administration.
Fluoxetine (ISRI antidepressant) was used as the positive control substance in the test, and was administered at 32 mg/kg (i.p.).
Quantitative data for the tested substances (number of glass spheres coated with sawdust) were evaluated by comparison with the treated groups using one-way ANOVA followed by planned comparisons against the appropriate vehicles. Data with fluoxetine were compared to the vehicle control using unpaired Student's t test.

## COc1ccccc1N1CCN(CCn2cnc3ccccc3c2=O)CC1 [Compound (A), 3-(2-(-4-(2-methoxyphenyl)piperazin-1-yl)ethyl)quinazolin-4(3H)-one]
[1]; 4 mg/Kg i.p., 30 minutes before the test
  Time spent in the clear compartment compared to vehicle %: +8%
[1]; 4 mg/Kg i.p., 30 minutes before the test, three-minute test
  Time spent in the clear compartment (seconds) (mean ± mean standard error): 79.6 ± 15.4 s
[1]; 8 mg/Kg i.p., 30 minutes before the test
  Time spent in the clear compartment compared to vehicle %: +111%
[1]; 8 mg/Kg i.p., 30 minutes before the test, three-minute test
  Time spent in the clear compartment (seconds) (mean ± mean standard error): 155.1 ± 14.4 s
[1]; 16 mg/Kg i.p., 30 minutes before the test
  Time spent in the clear compartment compared to vehicle %: +93%
[1]; 16 mg/Kg i.p., 30 minutes before the test, three-minute test
  Time spent in the clear compartment (seconds) (mean ± mean standard error): 141.7 ± 13.4 s
[1]; summary of Table 2 over the doses tested, i.p.
  permanence time in the clear compartment (result in words): efficient in extending the permanence time in the clear compartment
[2]
  withdrawal syndrome after an extended administration regimen: does not induce withdrawal syndrome
[3]; dose given in Table 4 as (4), i.p.
  Number of Hidden Spheres Compared to vehicle control %: -82%
[3]; dose given in Table 4 as (4), i.p., 25 glass spheres, counted at the end of 30 minutes
  Number of Hidden Spheres (mean ± mean standard error): 3.5 ± 2.4
[3]; dose given in Table 4 as (8), i.p.
  Number of Hidden Spheres Compared to vehicle control %: -98%
[3]; dose given in Table 4 as (8), i.p., 25 glass spheres, counted at the end of 30 minutes
  Number of Hidden Spheres (mean ± mean standard error): 0.3 ± 0.3
[3]; summary of Table 4 over the doses tested, i.p.
  number of hidden spheres (result in words): significantly reduced the number of hidden spheres

## Cc1nnc2n1-c1ccc(Cl)cc1C(c1ccccc1)=NC2 [Alprazolam, alprazolam]
[1]; mouse, in vivo
  Time spent in the clear compartment (seconds) (mean ± mean standard error): 103.9 ± 11.5 s and 126.9 ± 10.1 s and 112.7 ± 15.5 s
[2]
  amount of food consumed: significant reduction in the amount of food consumed on the first day of abstinence
  body weight, amount of food consumed and rectal temperature (the three studied parameters): showed no significant changes
  withdrawal syndrome after an extended administration regimen: induces withdrawal syndrome
[3]; mouse, in vivo
  Number of Hidden Spheres (mean ± mean standard error): 1,6 ± 1,4
  Number of Hidden Spheres Compared to vehicle control %: -92%
